The target of test [1] is T1, human JAK1 (Homo sapiens, UniProt P23458).
T1 construct: catalytic domain, amino acids 866-1154; catalog number PV4774; purchased Invitrogen PV4774
The experiment in a line: JAK1 inhibition assay (polyGT substrate / Ulight-JAK1 peptide). Format: biochemical. As to conditions: recombinant human JAK1 catalytic domain; polyGT or Ulight-JAK1 peptide assay. The gist of the method:
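Signal scaled between vehicle and 10 μM staurosporine. Radiometric polyGT reactions ran 45 min at 30 °C, counted after phosphoric-acid stop. Ulight peptide reactions ran 60 min at room temperature, fluorescence read after adding Eu-PT66 detection mix with EDTA.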

The target in test [2] is T2, human JAK3 (Homo sapiens, UniProt P52333).
T2 construct: catalytic domain (amino acids 781-1124; catalog number PV3855); purchased Invitrogen PV3855
T2 sequence (P52333 781-1124): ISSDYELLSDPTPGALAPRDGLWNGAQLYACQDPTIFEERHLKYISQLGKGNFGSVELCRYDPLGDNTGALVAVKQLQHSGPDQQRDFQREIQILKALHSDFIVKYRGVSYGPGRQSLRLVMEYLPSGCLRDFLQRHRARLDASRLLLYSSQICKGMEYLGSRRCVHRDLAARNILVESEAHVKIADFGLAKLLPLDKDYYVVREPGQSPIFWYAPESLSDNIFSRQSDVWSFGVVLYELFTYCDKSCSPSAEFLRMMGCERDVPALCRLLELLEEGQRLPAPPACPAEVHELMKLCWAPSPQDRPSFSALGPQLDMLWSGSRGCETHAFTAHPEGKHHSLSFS
The experiment in a line: JAK3 inhibition assay. As to conditions: recombinant human JAK3 catalytic domain; polyGT substrate. The test is classed as biochemical. The method in brief: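 Radiometric kinase assay: 0.5 ng JAK3 with 2.5 μg polyGT in Tris pH 7.5/MgCl2 buffer, 1 μM ATP plus 0.25 μCi 33P-γ-ATP, 1% DMSO, 45 min at 30 °C, stopped with phosphoric acid.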

In test [3] the test system is pSTAT1(2)-luciferase reporter in HeLa cells triggered with human OSM. Briefly: JAK-STAT signalling assay. The settings on record: HeLa cells, pSTAT1(2)-luciferase reporter, human OSM 33 ng/mL, read-out: JAK-STAT IC50. The test is classed as cell-based. The gist of the method:
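Compound added 60 min before 33 ng/mL (final) human OSM; after overnight stimulation at 37 °C, luciferase signal from a transiently transfected pSTAT1(2) reporter in HeLa cells was read, with LacZ as internal control. EC50 derived from percent-inhibition dose-response curves.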
A general note: In a reporter assay the amount or activity of a reporter protein is the signal.

Read-outs that look alike come from different tables or passages of the source. Where only a bound is given, the exact number is not on record here.

T1 sequence (P23458 866-1154): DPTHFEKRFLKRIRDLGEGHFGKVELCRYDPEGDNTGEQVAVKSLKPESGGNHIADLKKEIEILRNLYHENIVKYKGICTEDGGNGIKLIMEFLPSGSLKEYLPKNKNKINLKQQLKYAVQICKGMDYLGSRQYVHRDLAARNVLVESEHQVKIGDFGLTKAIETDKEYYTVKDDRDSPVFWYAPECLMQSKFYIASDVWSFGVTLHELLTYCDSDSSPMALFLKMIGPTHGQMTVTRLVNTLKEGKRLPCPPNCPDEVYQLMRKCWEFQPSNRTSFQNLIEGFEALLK

One may read the IC50 as the concentration that gives 50% inhibition. Turning to `CCc1cc(C(=O)NCc2ccccc2)ccc1N(C)c1cc2c(cn1)ncn2C` [Compound 98, N-benzyl-3-ethyl-4-(methyl(1-methyl-1H-imidazo[4,5-c]pyridin-6-yl)amino)benzamide], the half-inhibitory concentration (IC50) in test [1] was 0.01 to 100 nM; in test [2], 501 to 1000 nM; in test [3] (Homo sapiens, HeLa), > 1000 nM.
Take `CCc1cc(C(C)O)ccc1N(C)c1cc2c(cn1)ncn2C` (stereo not drawn) [Compound 101, 1-(3-Ethyl-4-(methyl(1-methyl-1H-imidazo[4,5-c]pyridin-6-yl)amino)phenyl)ethanol]: the IC50 in test [1] was 0.01 to 100 nM; in test [2], 101 to 500 nM; in test [3] (Homo sapiens, HeLa), 1 to 500 nM.
Regarding `CCNC(=O)c1ccc(N(C)c2cc3c(cn2)ncn3C)c(CC)c1` [Compound 102, N,3-diethyl-4-(methyl(1-methyl-1H-imidazo[4,5-c]pyridin-6-yl)amino)benzamide], the IC50 in test [1] was 0.01 to 100 nM; in test [2] it was > 1000 nM; in test [3] (Homo sapiens, HeLa), > 1000 nM.
As to `CCc1cc(C(C)(C)O)ccc1N(C)c1cc2c(cn1)ncn2C` [Compound 103, 2-(3-Ethyl-4-(methyl(1-methyl-1H-imidazo[4,5-c]pyridin-6-yl)amino)phenyl)propan-2-ol], the concentration for half-maximal inhibition (IC50) was 0.01 to 100 nM in test [1]; 101 to 500 nM in test [2]; > 1000 nM in test [3] (Homo sapiens, HeLa).
For `CCc1cc(COC)ccc1N(C)c1cc2c(cn1)ncn2C` [Compound 105, N-(2-Ethyl-4-(methoxymethyl)phenyl)-N,1-dimethyl-1H-imidazo[4,5-c]pyridin-6-amine], the half-maximal inhibitory concentration (IC50) in test [1] is 0.01 to 100 nM; in test [2], 101 to 500 nM; in test [3] (Homo sapiens, HeLa), > 1000 nM.
For `CCc1cc(O)ccc1N(C)c1cc2c(cn1)ncn2C` [Compound 107, 3-ethyl-4-(methyl(1-methyl-1H-imidazo[4,5-c]pyridin-6-yl)amino)phenol], in that order: 0.01 to 100 nM, 101 to 500 nM and 501 to 1000 nM.
On to `CCc1cc(OC2CCN(S(C)(=O)=O)C2)ccc1N(C)c1cc2c(cn1)ncn2C` (stereo not drawn) [Compound 110, N-(2-Ethyl-4-((1-(methylsulfonyl)pyrrolidin-3-yl)oxy)phenyl)-N,1-dimethyl-1H-imidazo[4,5-c]pyridin-6-amine], for which the IC50 in test [1] was 0.01 to 100 nM; in test [2], 101 to 500 nM; in test [3] (Homo sapiens, HeLa) it was > 1000 nM.
For `CCc1cc(Cn2ccnc2)ccc1N(C)c1cc2c(cn1)ncn2C` [Compound 111, N-(4-((1H-imidazol-1-yl)methyl)-2-ethylphenyl)-N,1-dimethyl-1H-imidazo[4,5-c]pyridin-6-amine], the IC50 was in the range of 0.01 to 100 nM in test [1]; 101 to 500 nM in test [2]; 501 to 1000 nM in test [3] (Homo sapiens, HeLa).
For `CCc1cc(-c2ccc(C#N)nc2)ccc1N(C)c1cc2c(cn1)ncn2C` [Compound 114, 5-(3-ethyl-4-(methyl(1-methyl-1H-imidazo[4,5-c]pyridin-6-yl)amino)phenyl)picolino-nitrile] the same measures were 0.01 to 100 nM, 101 to 500 nM and 1 to 500 nM.
For the compound `CCc1cc(-c2cnc(NC(C)=O)nc2)ccc1N(C)c1cc2c(cn1)ncn2C` [Compound 115, N-(5-(3-Ethyl-4-(methyl(1-methyl-1H-imidazo[4,5-c]pyridin-6-yl)amino)phenyl)pyrimidin-2-yl)acetamide], the 50% inhibitory concentration (IC50) in test [1] was 0.01 to 100 nM; in test [2], > 1000 nM; in test [3] (Homo sapiens, HeLa), 1 to 500 nM.
Consider `CCc1cc(C(=O)NCCN(C)C)ccc1N(C)c1cc2c(cn1)ncn2C` [Compound 119, N-(2-(dimethylamino)ethyl)-3-ethyl-4-(methyl(1-methyl-1H-imidazo[4,5-c]pyridin-6-yl)amino)benzamide], for which the IC50 was 0.01 to 100 nM in test [1]; > 1000 nM in test [2]; > 1000 nM in test [3] (Homo sapiens, HeLa).
Take `CCc1cc(C(=O)NCC#N)ccc1N(C)c1cc2c(cn1)ncn2C` [Compound 120, N-(cyanomethyl)-3-ethyl-4-(methyl(1-methyl-1H-imidazo[4,5-c]pyridin-6-yl)amino)benzamide]: the IC50 in test [1] is 0.01 to 100 nM; in test [2], 101 to 500 nM; in test [3] (Homo sapiens, HeLa), > 1000 nM.
In the case of `CCc1ccc(C(=O)NC(C)(C)C)cc1N(C)c1cc2c(cn1)ncn2C` [Compound 123, N-tert-butyl-4-ethyl-3-(methyl(1-methyl-1H-imidazo[4,5-c]pyridin-6-yl)amino)benzamide], the half-inhibitory concentration (IC50) in test [1] is 0.01 to 100 nM; in test [2], > 1000 nM; in test [3] (Homo sapiens, HeLa) it was > 1000 nM.
With `CCc1cc(-c2ccsc2)ccc1N(C)c1cc2c(cn1)ncn2C` [Compound 127, N-(2-ethyl-4-(thiophen-3-yl)phenyl)-N,1-dimethyl-1H-imidazo[4,5-c]pyridin-6-amine], the IC50 in test [1] fell in the range of 0.01 to 100 nM; in test [2], 0.01 to 100 nM; in test [3] (Homo sapiens, HeLa), 1 to 500 nM.
Take `CCc1cc(-c2ccc(CNC(=O)OC(C)(C)C)s2)ncc1N(C)c1cc2c(cn1)ncn2C` [Compound 302]: the IC50 in test [1] was 0.01 to 100 nM; in test [2] it was > 1000 nM; in test [3], > 1000 nM.
`CCc1cc(-c2ccc(CN)s2)ncc1N(C)c1cc2c(cn1)ncn2C` [Compound 303, [6-(5-Aminomethyl-thiophen-2-yl)-4-ethyl-pyridin-3-yl]-methyl-(1-methyl-1H-imidazo[4,5-c]pyridin-6-yl)-amine]: the values for the IC50 in test [1], in test [2] and in test [3] were 501 to 1000 nM, > 1000 nM and > 1000 nM, respectively.
With `CCc1cc(-c2ccc(Cl)s2)ncc1N(C)c1cc2c(cn1)ncn2C` [Compound 304, [6-(5-Chloro-thiophen-2-yl)-4-ethyl-pyridin-3-yl]-methyl-(1-methyl-1H-imidazo[4,5-c]pyridin-6-yl)-amine], the IC50 in test [1] was in the range of 0.01 to 100 nM; in test [2], 0.01 to 100 nM; in test [3], 1 to 500 nM.
On to `CCc1cc(-c2ccc(C)s2)ncc1N(C)c1cc2c(cn1)ncn2C` [Compound 311, [4-Ethyl-6-(5-methyl-thiophen-2-yl)-pyridin-3-yl]-methyl-(1-methyl-1H-imidazo[4,5-c]pyridin-6-yl)-amine], for which the half-inhibitory concentration (IC50) in test [1] was 0.01 to 100 nM; in test [2], 101 to 500 nM; in test [3] (Homo sapiens, HeLa), 1 to 500 nM.
For the compound `COc1cc(-c2c(C)nn(C)c2C)ncc1N(C)c1cc2c(cn1)ncn2C` [Compound 312], the concentration for half-maximal inhibition (IC50) in test [1], in test [2] and in test [3] was > 1000 nM in each case.
With `COc1cc(N2CCOCC2)ncc1N(C)c1cc2c(cn1)ncn2C` [Compound 313, (4-Methoxy-6-morpholin-4-yl-pyridin-3-yl)-methyl-(1-methyl-1H-imidazo[4,5-c]pyridine-6-yl)-amine], the values for the 50% inhibitory concentration (IC50) in test [1], in test [2] and in test [3] were 0.01 to 100 nM, 501 to 1000 nM and > 1000 nM, respectively.
In the case of `COc1ccc(S(=O)(=O)N2CCCCC2)cc1N(C)c1cc2c(cn1)ncn2C` [Compound 314, [2-Methoxy-5-(piperidine-1-sulfonyl)-phenyl]-methyl-(1-methyl-1H-imidazo[4,5-d]pyridin-6-yl)-amine], the concentration for half-maximal inhibition (IC50) in test [1], in test [2] and in test [3] was > 1000 nM each time.
With `COc1cc(S(=O)(=O)N2CCOCC2)ccc1N(C)c1cc2c(cn1)ncn2C` [Compound 315, [2-Methoxy-4-(morpholine-4-sulfonyl)-phenyl]-methyl-(1-methyl-1H-imidazo[4,5-d]pyridin-6-yl)-amine], the IC50 in test [1], in test [2] and in test [3] was > 1000 nM each time.

(Values after patent US20130217664A1, “NOVEL COMPOUNDS USEFUL FOR THE TREATMENT OF DEGENERATIVE AND INFLAMMATORY DISEASES” (priority 2012, published 2013).)
